Test results as given in patent publication US20050031597A1, “Cells and improved method for preserving cells” (priority 2003, published 2005).
Like-named read-outs stand apart in the source and are kept apart here.

Assays:
erythrocytic cells [1] = assay: Mean corpuscular hemoglobin of trehalose-loaded, freeze-dried and rehydrated erythrocytic cells; assay type: cell-based
Experimental: The cells had been loaded in media with different trehalose concentration (400 mM trehalose, 500 mM trehalose, 600 mM trehalose, 700 mM trehalose and 800 mm trehalose) in 100 mOsm PBS pH 7.2. The cells were freeze-dried in 300 mM trehalose in 100 mOsm PBS, 15% HES and 2.54% HSA and rehydrated in a buffer containing 188 mM trehalose, 15% HES and 2.5% HSA.

erythrocytic cells [2] = assay: Percent hemolysis of erythrocytic cells during loading or incubation; assay type: cell-based; conditions: 800 mM trehalose, 100 mOsm ADSOL, 6.6 mM Na-phosphate; 38-41° C., 6 hours
erythrocytic cells [3] = assay: ATP level of erythrocytic cells; assay type: cell-based
From the text: Levels of ATP and DPG may be measured or assayed in biological samples (e.g., in cells) by any suitable means or procedure. By way of example only, levels of ATP and DPG may be measured or assayed in biological samples (e.g., in cells) by using Sigma Diagnostic (Sigma Aldrich Chemicals, St. Louis, Mo.) assay kits (cat. # for ATP assay 366 and 366-A, and for 2,3-DPG assay 35-A) designed for determination of ATP and 2,3-DPG in biological samples (e.g., red blood cells). By further way of example only, biological samples (e.g., cells) may be lysed using 12% and 8% trichloracetic acid for ATP and 2,3-DPG determination, respectively. ATP may be quantified enzymatically by catalyzing ATP to ADP in the presence of 3-phosphoglycerate (3-PGA) using phosphoglycerate phosphokinase (PGK) and the resulting 1,3-diphosphoglycerate induced oxidation of NADH to NAD using glyceraldehyde phosphate dehydrogenase (GAPD) present in the assay media. The level of NADH may be monitored spectrophotometrically at 340 nm which corresponds directly with the ATP level. 2,3-DPG may be hydrolyzed by 2,3-DPG phosphatase to 3-PGA and inorganic phosphorus in the presence of 2-phosphoglycolic acid as a stimulator. 3-PGA reacts with ATP in the presence of PGK and the subsequent steps follow the above protocol used for ATP quantification. […]

erythrocytic cells [4] = assay: Hemolysis / survival of freeze-dried and rehydrated erythrocytic cells
Experimental: Cells were loaded in either 800 mM trehalose, 100 mOsm ADSOL, 6.6 mM Na-phosphate (FIG. 21, data set labeled as 800 mM treh) or in 800 mM trehalose, 100 mOsm ADSOL, 6.6 mM Na-phosphate and 1.2 mg/ml α-crystallin (FIG. 21, data set labeled as +α-crystallin 1.2 mg/ml). Cells were subsequently mixed with freeze-drying buffer with final concentration of 250 mM trehalose, 20 mOsm ADSOL, 15% HES and 2.5% HSA and were freeze-dried. After freeze-drying they were directly rehydrated (no pre-hydration) in 141 mM trehalose, 75 mOsm PBS, 11.25% HES and 1.875% HSA. […] In the third data set of FIG. 21, along with 1.2 mg/ml α-crystallin, there was 0.5 mg/ml α-crystallin added to the rehydration buffer.
Rehydration experiments were performed combining α-crystallin and Zn^2+ ions, and applying 5 min pre-hydration.
The cells were loaded in media with different trehalose concentration (400, 500, 600, 700 and 800 mM trehalose) in 100 mOsm PBS pH 7.2. The cells were freeze-dried in 300 mM trehalose in 100 mOsm PBS, 15% HES and 2.54% HSA and rehydrated in a buffer containing 188 mM trehalose, 15% HES and 2.5% HSA.
Loading buffer comprised 800 mM trehalose in a salt solution of 100 mOsm PBS. The incubation time was 16 hours at a temperature of about 35° C. After the cells were loaded, they were subsequently washed in a washing buffer comprising 300 mM in a salt solution of 100 mOsm PBS. Within 3 hours after washing the loaded cells, the wash loaded cells were freeze-dried in freeze-drying buffer comprising about 300 mM trehalose, about 100 mOsm PBS, about 2.5% by wt. HSA, and about 15% by wt. HES. After the freeze-drying procedure the cells had about 75 mM trehalose, about 25 mOsm PBS, about 0.6% by wt. HSA and about 4.0% by wt. HES left in the cells. The freeze-dried cells were then reconstituted at about 37° C. for about 10 minutes in a rehydration buffer comprising about 188 mM trehalose, about 100 mOsm PBS, about 2.5% by wt.

erythrocytic cells [5] = assay: Osmotic fragility index of trehalose-loaded erythrocytic cells; assay type: cell-based
Experimental: FIG. 6 graphically illustrates the fragility index of erythrocytic cells incubated overnight at respective temperatures of 4° C. and 37° C. in the presence of and as a function of increasing intracellular trehalose concentrations. The osmotic fragility index was generated by the extent of hemolysis as a function of the NaCl concentration. The erythrocytic cells that had been loaded in trehalose solutions (between 250 mM and 1000 mM) in 100 mOsm PBS were suspended in increasing concentrations of NaCl (between 50 and 600 mOsm NaCl). The percent hemolysis measured after resuspending the loaded cells in NaCl represents the fragility index.

human platelets = assay: Loading of platelets with trehalose (anthrone reaction); assay type: cell-based; conditions: for trehalose uptake: 37° C.; for loading efficiency of trehalose: 4 hour incubation, 50 mM external trehalose
Experimental: Washing of Platelets. Platelet concentrations were obtained from the Sacramento blood center or from volunteers in our laboratory. Platelet rich plasma was centrifuged for 8 minutes at 320×g to remove erythrocytes and leukocytes. The supernatant was pelleted and washed two times (480×g for 22 minutes, 480×g for 15 minutes) in buffer A (100 MM NaCl, 10 MM KCl, 10 mM EGTA, 10 mM imidazole, pH 6.8). Platelet counts were obtained on a Coulter counter T890 (Coulter, Inc., Miami, Fla.).
Loading of Platelets with Trehalose. Washed platelets in a concentration of 1-2 10^9 platelets/ml were incubated at various temperatures in the presence of 1-20 mg/ml trehalose. Incubation temperatures were chosen from 4° C. to 37° C. Incubation times were varied from 0.5 to 4 hours. After incubation the platelet solutions were washed in buffer A two times (by centrifugation at 14,000 RPM for 20 s in a table centrifuge). Platelet counts were obtained on a coulter counter. Platelets were pelleted (45 S at 14,000 RPM) and sugars were extracted from the pellet using 80% methanol. The samples were heated for 30 minutes at 80° C. The methanol was 10 evaporated with nitrogen, and the samples were kept dry and redissolved in H2O prior to analysis. The amount of trehalose in the platelets was quantified using the anthrone reaction (Umbreit et al., Mamometric and Biochemical Techniques, 5th Edition, 1972). Samples were redissolved in 3 ml H2O and 6 ml anthrone reagents (2 g anthrone dissolved in 10M sulfuric acid). After vortex mixing, the samples were placed in a boiling water bath for 3 minutes. Then the samples were cooled on ice and the absorbance was measured at 620 nm on a Perkin Elmer spectrophotometer. The amount of platelet associated trehalose was determined using a standard curve of trehalose.
Quantification of Trehalose and LYCH Concentration. Uptake was calculated for each sample as micrograms of trehalose or LYCH per platelet. The internal trehalose concentration was calculated assuming a platelet radius of 1.2 μm and by assuming that 50% of the platelet volume is taken up by the cytosol (rest is membranes). The loading efficiency was determined from the cytosolic trehalose or LYCH concentration and the concentration in the loading buffer.

osmotic fragility (erythrocytic cells [5]; 1000 mM trehalose in 100 mOsm PBS at 37° C.): unstable
osmotic fragility (erythrocytic cells [5]; trehalose media between 250 mM and 800 mM in 100 mOsm PBS, 37° C. and 4° C.): stable osmotically
loading efficiency of trehalose (human platelets; 22° C. and below): below 5%
loading efficiency of trehalose (human platelets; 37° C. (FIG. 1)): 35%
loading efficiency (human platelets; time course at 37° C., incubation period of 4 hours (FIG. 2)): 61%
Structure (SMILES): OC[C@H]1O[C@H](O[C@H]2O[C@H](CO)[C@@H](O)[C@H](O)[C@H]2O)[C@H](O)[C@@H](O)[C@@H]1O [trehalose]
mean corpuscular hemoglobin in rehydrated cells (erythrocytic cells [1]; cells loaded in 400 mM trehalose): about 7 pg
mean corpuscular hemoglobin in rehydrated cells (erythrocytic cells [1]; cells loaded in 800 mM trehalose): about 14 pg
MCH (erythrocytic cells [1]; intracellular trehalose about 40 mM to about 42 mM): about 9 pg
MCH (erythrocytic cells [1]; intracellular trehalose about 60 mM): greater than 14 pg
extent of hemolysis during loading (erythrocytic cells [2]): about 17%
level of ATP (erythrocytic cells [3]; 37° C., during 16 hours of incubation): does not decrease
level of ATP (erythrocytic cells [3]; trehalose solute solution, about 37° C., about 0 to about 7 hours, increases from about 4.0): about 4.5 μmol/gHb
biconcave shape and cell integrity of rehydrated cells (erythrocytic cells [4]; 60 mM cytoplasmic trehalose, freeze-dried and rehydrated (FIG. 14)): well preserved
cells lysed after rehydration (erythrocytic cells [4]; protocol of Example 12: loaded 800 mM trehalose/100 mOsm PBS, freeze-dried and rehydrated with trehalose, PBS, HSA, HES): less than 5%
hemolysis at 100000 µM (erythrocytic cells [4]; read-out: % hemolysis of rehydrated cells): < 10%
hemolysis at 800000 µM (erythrocytic cells [4]; read-out: hemolysis after freeze-drying and direct rehydration): 63%
hemolysis at 800000 µM (erythrocytic cells [4]; read-out: percent hemolysis after freeze-drying and direct rehydration): 68%
trehalose uptake (human platelets; after 2 hours, rapid linear uptake): 3.3×10^−10 mol/m^2s
trehalose uptake (human platelets; from 0 to 2 hours): 2.8×10^−11 mol/m^2s
